Measured values taken from the NIST ThermoML archive (doi:10.1021/je100896n).
Numbers after ± are expanded uncertainties.

Conditions: Fluid (supercritical or subcritical phases), Pulse-echo method

Compound: C=C(F)C(F)(F)F [2,3,3,3-tetrafluoro-1-propene]
- speed of sound (259.99 K, 4968 kPa): 655.69 ± 1.4 m/s
- speed of sound (260 K, 1989 kPa): 632.05 ± 1.4 m/s
- speed of sound (260 K, 3044 kPa): 640.57 ± 1.4 m/s
- speed of sound (260 K, 4057 kPa): 648.57 ± 1.4 m/s
- speed of sound (260 K, 5993 kPa): 663.37 ± 1.4 m/s
- speed of sound (285 K, 4006 kPa): 546.27 ± 1.5 m/s
- speed of sound (285 K, 5983 kPa): 565.09 ± 1.5 m/s
- speed of sound (285.01 K, 2033 kPa): 525.9 ± 1.6 m/s
- speed of sound (285.01 K, 3011 kPa): 536.18 ± 1.5 m/s
- speed of sound (285.01 K, 5090 kPa): 556.71 ± 1.5 m/s
- speed of sound (310 K, 5016 kPa): 456.81 ± 1.7 m/s
- speed of sound (310 K, 6057 kPa): 469.1 ± 1.6 m/s
- speed of sound (310.01 K, 2013 kPa): 415.62 ± 2.2 m/s
- speed of sound (310.01 K, 3042 kPa): 430.67 ± 1.8 m/s
- speed of sound (310.01 K, 4019 kPa): 444 ± 1.7 m/s
- speed of sound (334.98 K, 5937 kPa): 371.38 ± 1.9 m/s
- speed of sound (335 K, 2073 kPa): 293.74 ± 2.6 m/s
- speed of sound (335 K, 3039 kPa): 317.18 ± 2.5 m/s
- speed of sound (335 K, 3985 kPa): 336.92 ± 2.2 m/s
- speed of sound (335 K, 5008 kPa): 355.82 ± 2.1 m/s
- speed of sound (359.94 K, 6062 kPa): 275.99 ± 2.8 m/s
- speed of sound (359.96 K, 4997 kPa): 248.55 ± 2.8 m/s

Compound: F/C=C/C(F)(F)F [trans-1,3,3,3-tetrafluoropropene]
- speed of sound (259.98 K, 1980 kPa): 715.11 ± 1.4 m/s
- speed of sound (259.98 K, 3989 kPa): 728.84 ± 1.4 m/s
- speed of sound (260 K, 6021 kPa): 742.08 ± 1.4 m/s
- speed of sound (260 K, 8007 kPa): 754.65 ± 1.4 m/s
- speed of sound (260.01 K, 10070 kPa): 767.16 ± 1.4 m/s
- speed of sound (285 K, 1956 kPa): 606.38 ± 1.5 m/s
- speed of sound (285 K, 4021 kPa): 624.26 ± 1.4 m/s
- speed of sound (285 K, 6056 kPa): 640.72 ± 1.4 m/s
- speed of sound (285 K, 8005 kPa): 655.64 ± 1.4 m/s
- speed of sound (285 K, 9989 kPa): 670.06 ± 1.4 m/s
- speed of sound (310 K, 2063 kPa): 497.64 ± 1.7 m/s
- speed of sound (310 K, 3947 kPa): 519.14 ± 1.6 m/s
- speed of sound (310 K, 10112 kPa): 578.79 ± 1.5 m/s
- speed of sound (310.01 K, 6041 kPa): 540.98 ± 1.5 m/s
- speed of sound (310.01 K, 8005 kPa): 559.88 ± 1.5 m/s
- speed of sound (335 K, 7985 kPa): 465.6 ± 1.6 m/s
- speed of sound (335 K, 10020 kPa): 488.5 ± 1.6 m/s
- speed of sound (335.01 K, 2007 kPa): 379.56 ± 2 m/s
- speed of sound (335.01 K, 4027 kPa): 413.08 ± 1.9 m/s
- speed of sound (335.01 K, 5978 kPa): 440.56 ± 1.7 m/s
- speed of sound (360 K, 6047 kPa): 340.1 ± 2.2 m/s
- speed of sound (360.02 K, 3998 kPa): 296.31 ± 2.4 m/s
- speed of sound (360.03 K, 8052 kPa): 373.95 ± 1.9 m/s
- speed of sound (360.03 K, 10036 kPa): 402.5 ± 1.8 m/s
